Test results reported in patent US10976310B2, “Ligand identification by co-fractionation” (MAX-PLANCK-GESELLSCHAFT ZUR FÖRDERUNG DER WISSENSCHAFTEN …, priority 2016, dated 2021).

Target: T1, Rbp47b-TAP protein (Arabidopsis thaliana, UniProt Q0WW84)
T1 construct: expressed in transfected cells; host or cells: Arabidopsis cell suspension culture, Agrobacterium-transformed
T1 sequence (Q0WW84 1-435): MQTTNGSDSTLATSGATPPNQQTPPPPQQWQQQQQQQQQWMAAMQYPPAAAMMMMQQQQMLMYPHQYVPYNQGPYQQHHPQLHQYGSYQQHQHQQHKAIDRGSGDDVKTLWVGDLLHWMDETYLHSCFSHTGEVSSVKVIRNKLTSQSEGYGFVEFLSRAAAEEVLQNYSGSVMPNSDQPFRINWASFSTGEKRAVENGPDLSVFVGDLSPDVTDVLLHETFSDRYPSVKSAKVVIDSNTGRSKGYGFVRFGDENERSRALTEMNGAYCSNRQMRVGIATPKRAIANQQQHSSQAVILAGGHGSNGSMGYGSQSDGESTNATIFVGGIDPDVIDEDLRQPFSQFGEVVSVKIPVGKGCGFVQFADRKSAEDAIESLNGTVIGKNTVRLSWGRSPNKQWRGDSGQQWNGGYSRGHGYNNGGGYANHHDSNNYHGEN
Assay: Cellular thermal shift assay (CETSA) in native Arabidopsis lysate
Format: binding
Settings: read-out: change of Rbp47b melting temperature (thermal destabilization)
Method: To this end we set out to identify the binding protein partners of 2′,3′-cAMP by applying affinity purification (AP) using agarose beads, with 2′,3′-cAMP linked via the NH2 group of the purine ring. After incubation of the beads with total soluble-protein extracts from A. thaliana cell suspension cultures (cf. Materials and Methods) sequential washings with ADP, GDP, 5′-AMP, and finally 2′,3′-cAMP were performed, and the proteins eluting in the different washings were analyzed by LC-MS/MS proteomics. Proteins eluting from the agarose beads exclusively with 2′,3′-cAMP but absent in any of the other eluents (ADP, GDP, or 5′-AMP; FIG. 10A) were defined as 2′,3′-cAMP-binding. Applying this stringent criterion only one protein remained: the polyadenylate-binding protein Rbp47b. We reasoned that the putative formation of Rbp47b-2′,3′-cAMP complexes in vivo should be reflected by largely overlapping elution profiles of the two components in a size-exclusion experiment (SEC), as was indeed the case (FIG. 10B). To obtain further and independent evidence for the formation of a complex between Rbp47b and 2′,3′-cAMP, we performed a cellular thermal shift assay (CETSA) (Franken et al. (2015) Thermal proteome profiling for unbiased identification of direct and indirect drug targets using multiplexed quantitative mass spectrometry. Nat Protoc 10: 1567-1593). CESTA is a method used in the drug research to verify ligand-receptor binding in the native cellular lysate, based on the observation that presence of the ligand changes thermal stability of the protein receptor. Herein, we adapted the protocol to be suitable for the plant material and an endogenous […] metabolite. We used Arabidopsis cells expressing a tagged version of the Rbp47b, so that Rbp47b level could be easily detected with the anti-tag antibody. […] Taken together, three independent experimental approaches (AP, SEC, and CETSA) provide evidence for the binding of 2′,3′-cAMP to Rbp47b in the native Arabidopsis lysate. […]

Nc1ncnc2c1ncn2[C@@H]1O[C@H](CO)[C@H]2OP(=O)(O)O[C@H]21 [2′,3′-cAMP] gave a ΔTm at 10 µM of 2.4 °C and a ΔTm at 100 µM of 5.1 °C.
